Reference: publication PMC4304288, “Function through bio-inspired, synthesis-informed design: step-economical syntheses of designed kinase inhibitors” (Organic Chemistry Frontiers, 2014)

Legend:
PKC (rat brain mixture) = test: PKC inhibition assay (protocol of Kikkawa, [γ-32P]ATP, histone); format: biochemical; details: rat brain mixture of PKC isoforms
Experimental: Our initial analogs were tested for inhibition of PKC[37],[38] (rat brain mixture) due to its clinical significance and our on-going and complementary work on PKC activators.[7b],[16],[26]
Simplified analog 19 was tested in the PKC inhibition assay using the rat brain mixture of PKC isoforms. […]. Computational docking[42] of the energy-minimized conformer of 19 in the computer-simulated ATP-binding pocket of PKCα (Fig. 3) illustrates the conserved hydrogen bonds between the maleimide and hinge region residues and the shape complementarity of the ligand with the pocket.
A PKC inhibition assay was performed following the protocol developed by Kikkawa and coworkers.5 The assay can be scaled as desired. Histone solution (0.33 mg/mL in 20 mM Tris buffer) was prepared from a stock solution (33 mg/mL, stored frozen). Phosphatidylserine (PS) vesicles were prepared by the addition of PS (10 mg/mL in chloroform, 240 µL) and dioleoylglycerol (10 mg/mL in ethanol, 40 µL) to a glass vial followed by removal of the chloroform under a stream of nitrogen. To the neat PS was added chilled 20 mM Tris assay buffer (2 mL) and the resulting mixture was sonicated (Branson Sonifier 250, power = 3, 30% duty cycle) four times for 30 sec with a 30 sec interval between sonications. The resulting milky suspension was stored on ice. "Stop" solution refers to a solution of 200 mM EDTA and 200 mM ATP in 20 mM Tris buffer.
Whatman filter papers were cut in 1 x 1 inches in dimension and labeled with tube number in pencil. An "Autogo" solution was prepared by mixing 27 µL of 3.75 mM ATP (in 20 mM Tris), 100 µL of 1.0 M MgCl2, 872 µL of 20 mM Tris buffer, and 1.3 µL of [γ-32P] ATP (total volume is 1 mL). "Autogo" solution should be kept in the hot hood all the time. "Cocktail 1" was prepared by mixing 70 µL of 10 mM Ca2+, 350 µL of 20 mM Tris, and 70 µL of histone solution (0.33 mg/mL in 20mM Tris). "Cocktail 2" was prepared by mixing 310 µL of 10 mM Ca2+, 930 µL of 20 mM Tris, 310 µL of the histone solution, and 310 µL of the PS solution (added only once the assay is ready to be run).
To each eppendorf tube, 10 µL of PKC solution and10 µL of the inhibitor solution were added. After addition of the inhibitor, each tube was vortexed. For negative controls, 70 µL of cocktail 1 was added to tubes 1 and 2. To the rest of the tubes were added 60 µL of cocktail 2. All the tubes were then transferred to the hot hood, and 20 µL of "Autogo" solution was added to each tube and vortexed immediately. A start countdown of 7 min was initiated when "Autogo" was added to the first tube. Addition to all the tubes should be completed within 7 min. When the countdown is over, "Stop" solution was added to each tube and vortexed. The interval between the addition of "Autogo" and "Stop" solution should be 7 min for each tube.
Contents of each tube was transferred to the piece of pre-labeled Whatman filter paper and the paper was washed by soaking them and swirling in a beaker filled with 300 mL of tap water. Once all the filter papers are soaked in the beaker, the supernatant was carefully drained (to the hot hood drain) and the papers were rinsed by soaking them in 300 mL of fresh tap water for 2 min. The water was decanted, and the papers were rinsed by soaking them in 300 mL of ethanol for 2 min. The ethanol should be recovered to a bottle in the hot hood (not to the drain). The papers were dried in the hot hood and each paper was transferred to a scintillation vial. The radiation was measured with the scintillation counter (Beckman LS 6000SC). The data set was analyzed using a least-square data-fitting algorithm in Prism 4 (Graphpad Software Inc.) to give an IC50 value (defined as the concentration of analogue required to inhibit 50% of PKC activity).

PKCβ = details: cited from earlier work

NCCCn1c2ccc(Cl)cc2c2c3c(c4c(c21)CCC(O)CC4)C(=O)NC3=O (centres unmarked) [Compound 10]
IC50 (PKC (rat brain mixture)): 2600 nM

NCCCn1c2ccc(Cl)cc2c2c3c(c4c(c21)CCC(N)CC4)C(=O)NC3=O (centres unmarked) [Compound 11]
IC50 (PKC (rat brain mixture)): 12500 nM

CNC1CCc2c3c(c4c5cc(Cl)ccc5n(CCCN)c4c2CC1)C(=O)NC3=O (centres unmarked) [Compound 12]
IC50 (PKC (rat brain mixture)): 14100 nM

CN(C)C1CCc2c3c(c4c5cc(Cl)ccc5n(CCCN)c4c2CC1)C(=O)NC3=O (centres unmarked) [Compound 13]
IC50 (PKC (rat brain mixture)): 2900 nM

CN(C)C1CCc2c3c(c4c5ccccc5n(CCCN)c4c2CC1)C(=O)NC3=O (centres unmarked) [Compound 14]
IC50 (PKC (rat brain mixture)): 1600 nM

CN(C)C1CCc2c(CC3CCNCC3)cc3c(c2CC1)C(=O)NC3=O (centres unmarked) [Compound 19]
IC50 (PKC (rat brain mixture)): 13 nM

Cn1cc(C2=C(c3cn(C4CCN(Cc5ccccn5)CC4)c4ccccc34)C(=O)NC2=O)c2ccccc21 [enzastaurin]
selectivity for PKCβ over PKCα (PKCβ): 26 fold

CN(C)C[C@@H]1CCn2cc(c3ccccc32)C2=C(C(=O)NC2=O)c2cn(c3ccccc23)CCO1 [ruboxistaurin]
selectivity for PKCβ over PKCα (PKCβ): 60 fold
